One molecule from patent US20200270588A1, “GLUCOSYL TRANSFERASE POLYPEPTIDES AND METHODS OF USE” (Syngenta Participations AG, priority 2017, published 2020) can be followed below.

Type in all cases: biochemical
In assay [1] the test system is Larkspur bx glucosyl transferase (SEQ ID NO 10). Kind of assay: UDP-Glo glucosyl transferase assay, purified enzyme. The conditions noted are these: 1 mM herbicide V. As to the method: (§1) Glucosyl transferase activity is assayed via measurement of acceptor substrate-dependent production of UDP from ultrapure UDP-glucose using the Promega UDP-Glo™ method and according to the manufacturer's instructions. Assays are run in 96 well microtiter plates.
(§2) Enzyme, typically at a stock concentration of ˜2 mg/ml is diluted to an appropriate concentration in 50 mM K^+ Hepes buffer at pH7.5 containing 0.5 mg/mL bovine serum albumin (BSA) and 5 ul aliquots of this diluted enzyme added to each well of a Perkin Elmer white ½ area 96 well plate. […] Assays are run for an appropriate time (usually 10 to 60 min) so that the amount of UDP formed lies within the most nearly linear part of the UDP standard curve and are stopped with the addition and mixing of 25 ul UDP-Glo™ detection reagent (prepared as described below). Plates are then incubated at room temperature for 60 minutes and then read in a luminescence plate reader (Perkin Elmer Envision 2130 Multilabel Reader). A UDP standard curve is run alongside each set of assays and reagent blank control assays run with DMSO in place of test herbicide. Typically, 300 pmol of UDP corresponds to a Relative Luminescence Unit (RLU) reading of about 1.5E7 and the response curve between 0 and 600 pmol is fitted to a polynomial function (see for example FIG. 2).
(§3) The UDP-Glo™ reagents are made up and used according to the manufacturer's instructions. Thus, Nucleotide Detection Buffer and ATP are combined to make nucleotide detection reagent (NDR) dispensed into aliquots and frozen to be freshly thawed before use.
(§4) Km and kcat values in respect of UDP-glucose are derived by carrying out experiments to measure initial rates over a suitable range of concentrations of UDP glucose out at a fixed near saturating concentration of acceptor substrate. Best fit values of kcat, Km and kcat/Km are obtained by direct fitting of the data to the Michaelis-Menten equation using Graphpad Prism™ software.
(§5) DNA sequences, optimized for E. coli codon usage, corresponding to SEQ IDs 1-15, encoding BX8 and BX9 orthologue polypeptides derived from a range of species (as depicted in FIG. 1) were synthesized by Genewiz (South Plainfield, USA) with 5′ NdeI and 3′ XhoI restriction sites. The various orthologues were synthesized with either a N-terminal 6×His purification tag or C-terminal 6×His purification tag (i.e. tried both ways to achieve best expression of activity) and cloned into the E. coli expression plasmid pET24a (Novagen) via the NdeI and XhoI restriction sites. Expression, purification and assay was as described in Example 1.
(§6) Assays were carried out as described in Example 1. Partly purified C-terminally his tagged w/t Larkspur enzyme (SEQ ID No 10 with a 6 amino acid C-terminal tag) catalyzed glucosyl transfer to herbicide V at a rate estimated to be about 0.0065/s/pmol at 1 mM herbicide V. The similarly-tagged w/t bx-like enzymes from rye (SEQ ID No 11) and from wheat (SEQ ID No 4) were also active but only at levels close to the detection limit at ˜0.0015/s/pmol. Further examples of assay results from further experiments are depicted in Table 14. All of the proteins were C-terminally his tagged versions of the sequences referenced except for the Zea mays bx8 SEQ ID NO: 2 which was N-terminally his tagged.

Assay [2] has as its system rye bx-like glucosyl transferase (SEQ ID No 11). The description is as above. The conditions noted are these: herbicide V; close to the detection limit. The protocol:
as §1, §2, §3, §4, §5, §6

The target of assay [3] is T1, Zea mays bx8 (SEQ ID No: 2) with GIGVD peptide insert in place of D442 (Zea mays, UniProt Q8W2B7, INS441GIGV).
T1 construct: His tag (N); made in house; host or cells: E. coli, pET24a
The assay is described as follows: LC/MS glucosyl transferase assay (glucoside peak area), purified enzyme. The conditions noted are these: LC/MS assay run for 30 min. The protocol: In an alternative method for assaying the various enzymes, the test glucosyl transferase enzyme is reacted with substrates exactly as above except that the assay is stopped by adding an equal volume of acetonitrile. Alternatively 50 or 100 μl samples from assay reactions are added to 500 μl ethyl acetate to stop the reaction. In this case samples are then vortexed and 400 μl of the ethyl acetate partition removed, dried down, and resuspended in 100 μl 80:20 acetonitrile/water. The formation of product gluco side and/or disappearance of substrate test herbicide is then monitored directly by LC/MS. Samples are analyzed by LC-MS using an Agilent 1290 liquid chromatography system and Thermo Q-Exactive mass spectrometer. The chromatography is achieved on a Waters Acquity C18 BEH (50×2.1 mm) 1.7 μm particle size column, using a 6 minute gradient run of Water (0.2% formic acid) and Acetonitrile. The Q-Exactive is operated in positive ionisation electrospray mode, using Full scan-AIF mode, at 35,000 resolution, between 100-800 m/z. All analytes are identified from the full scan data to within at least 5 ppm accuracy of their predicted pseudo-molecular ion [M+H]^+ m/z value. In order to obtain quantitative data standard curves are run using herbicides and herbicide glucosides synthesized as standards. […]

SMILES strings stand for the structures.

T1 sequence (Q8W2B7 other isoform, or with tags, fused parts or gaps INS441GIGV): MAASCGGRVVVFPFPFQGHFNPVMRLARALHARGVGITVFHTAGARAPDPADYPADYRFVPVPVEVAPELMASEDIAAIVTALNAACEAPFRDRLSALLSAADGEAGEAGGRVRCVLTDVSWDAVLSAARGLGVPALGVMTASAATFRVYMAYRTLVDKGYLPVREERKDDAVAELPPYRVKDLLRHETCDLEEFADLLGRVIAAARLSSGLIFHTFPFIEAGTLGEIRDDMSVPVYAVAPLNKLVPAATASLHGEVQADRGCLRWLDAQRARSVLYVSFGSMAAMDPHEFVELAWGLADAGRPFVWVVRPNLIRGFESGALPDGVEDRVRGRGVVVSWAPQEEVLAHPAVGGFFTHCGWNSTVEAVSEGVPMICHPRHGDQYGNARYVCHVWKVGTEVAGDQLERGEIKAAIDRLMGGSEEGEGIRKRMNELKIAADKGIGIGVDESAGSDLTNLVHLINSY

As to `CN1CC(O)N(c2cc(C(F)(F)F)ccn2)C1=O` (stereo not drawn) [Compound V], the “rate of glucosyl transfer” value was “about 0.0065 /s/pmol” in assay [1] and around 0.0015 s⁻¹ pmol⁻¹ in assay [2]. Moreover, in assay [3], the “integrated peak area of glucoside product” value was 2.5E6 units.
